According to the kinase profiling compilation of Christmann-Franck et al. (2016):
Values belong to the compound of their own block, whether it stands above or below them.

Legend:
Assay in all cases: radiometric filter-binding kinase assay, Kinase HotSpot
Conditions in all cases: compound 0.5 µM; ATP 10 µM
CSK (human) = CSK (human) (UniProt P41240)
ITK (human) = ITK (human) (UniProt Q08881)
GSG2 (human) = GSG2 (human) (UniProt Q8TF76)
ROS1 (human) = ROS1 (human) (UniProt P08922)
TGFBR1 (human) = TGFBR1 (human) (UniProt P36897)
DCLK2 (human) = DCLK2 (human) (UniProt Q8N568)
ERBB4 (human) = ERBB4 (human) (UniProt Q15303)
TYRO3 (human) = TYRO3 (human) (UniProt Q06418)
TTK (human) = TTK (human) (UniProt P33981)
PIM3 (human) = PIM3 (human) (UniProt Q86V86)
CDK4 CCND3 (human) = CDK4 CCND3 (human) (UniProt P30281+P11802)
ZAP70 (human) = ZAP70 (human) (UniProt P43403)
ZAP70 (human), sequence (P43403 whole entry, looked up): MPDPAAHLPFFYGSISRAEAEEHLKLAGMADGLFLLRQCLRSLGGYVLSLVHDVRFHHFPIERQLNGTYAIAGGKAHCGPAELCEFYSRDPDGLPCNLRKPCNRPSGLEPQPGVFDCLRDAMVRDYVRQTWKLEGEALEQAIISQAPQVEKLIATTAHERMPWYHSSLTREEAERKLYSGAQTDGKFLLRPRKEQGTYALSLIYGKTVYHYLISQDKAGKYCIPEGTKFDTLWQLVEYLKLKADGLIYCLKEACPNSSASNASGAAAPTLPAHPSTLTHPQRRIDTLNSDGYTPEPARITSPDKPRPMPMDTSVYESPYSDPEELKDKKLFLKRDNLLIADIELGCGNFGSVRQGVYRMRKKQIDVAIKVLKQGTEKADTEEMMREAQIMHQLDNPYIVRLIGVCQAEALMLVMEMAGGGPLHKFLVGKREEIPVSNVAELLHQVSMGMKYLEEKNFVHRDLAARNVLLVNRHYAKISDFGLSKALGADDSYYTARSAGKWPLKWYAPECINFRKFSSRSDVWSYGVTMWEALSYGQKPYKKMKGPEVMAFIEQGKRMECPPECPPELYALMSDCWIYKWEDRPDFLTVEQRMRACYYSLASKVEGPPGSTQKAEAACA

MAP3K7 TAB1 (human) = MAP3K7 TAB1 (human) (UniProt O43318+Q15750)
STK39 (human) = STK39 (human) (UniProt Q9UEW8)
CSNK1D (human) = CSNK1D (human) (UniProt P48730)
BRSK1 (human) = BRSK1 (human) (UniProt Q8TDC3)
KIT (human) = KIT (human) (UniProt P10721)
KIT (human), sequence (P10721 whole entry, looked up): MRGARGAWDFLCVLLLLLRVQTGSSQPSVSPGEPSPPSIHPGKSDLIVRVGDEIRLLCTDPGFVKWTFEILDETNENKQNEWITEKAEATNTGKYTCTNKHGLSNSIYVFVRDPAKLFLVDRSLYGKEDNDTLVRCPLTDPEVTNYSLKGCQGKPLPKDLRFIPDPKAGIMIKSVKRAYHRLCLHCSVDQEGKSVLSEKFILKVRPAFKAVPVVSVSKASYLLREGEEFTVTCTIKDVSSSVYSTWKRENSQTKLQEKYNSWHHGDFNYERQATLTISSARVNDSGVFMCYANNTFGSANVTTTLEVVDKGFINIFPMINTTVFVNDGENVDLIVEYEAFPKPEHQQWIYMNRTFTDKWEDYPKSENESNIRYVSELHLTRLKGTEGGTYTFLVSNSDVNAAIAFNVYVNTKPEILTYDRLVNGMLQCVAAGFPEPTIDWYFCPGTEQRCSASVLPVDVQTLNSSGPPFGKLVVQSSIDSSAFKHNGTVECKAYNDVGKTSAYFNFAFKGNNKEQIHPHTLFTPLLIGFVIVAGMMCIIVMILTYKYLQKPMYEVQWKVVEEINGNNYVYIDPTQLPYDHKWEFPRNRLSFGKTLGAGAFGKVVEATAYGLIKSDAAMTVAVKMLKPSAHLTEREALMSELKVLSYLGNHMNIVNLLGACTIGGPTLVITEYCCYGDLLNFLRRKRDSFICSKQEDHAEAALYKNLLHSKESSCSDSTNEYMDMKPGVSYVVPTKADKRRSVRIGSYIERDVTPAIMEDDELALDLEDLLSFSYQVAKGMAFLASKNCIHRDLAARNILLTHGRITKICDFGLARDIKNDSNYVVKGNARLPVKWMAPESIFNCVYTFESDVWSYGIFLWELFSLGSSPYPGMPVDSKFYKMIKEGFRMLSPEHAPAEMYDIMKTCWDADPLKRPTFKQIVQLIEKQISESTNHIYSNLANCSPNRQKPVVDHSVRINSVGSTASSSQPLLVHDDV

MARK4 (human) = MARK4 (human) (UniProt Q96L34)
MARK4 (human), sequence (Q96L34 whole entry, looked up): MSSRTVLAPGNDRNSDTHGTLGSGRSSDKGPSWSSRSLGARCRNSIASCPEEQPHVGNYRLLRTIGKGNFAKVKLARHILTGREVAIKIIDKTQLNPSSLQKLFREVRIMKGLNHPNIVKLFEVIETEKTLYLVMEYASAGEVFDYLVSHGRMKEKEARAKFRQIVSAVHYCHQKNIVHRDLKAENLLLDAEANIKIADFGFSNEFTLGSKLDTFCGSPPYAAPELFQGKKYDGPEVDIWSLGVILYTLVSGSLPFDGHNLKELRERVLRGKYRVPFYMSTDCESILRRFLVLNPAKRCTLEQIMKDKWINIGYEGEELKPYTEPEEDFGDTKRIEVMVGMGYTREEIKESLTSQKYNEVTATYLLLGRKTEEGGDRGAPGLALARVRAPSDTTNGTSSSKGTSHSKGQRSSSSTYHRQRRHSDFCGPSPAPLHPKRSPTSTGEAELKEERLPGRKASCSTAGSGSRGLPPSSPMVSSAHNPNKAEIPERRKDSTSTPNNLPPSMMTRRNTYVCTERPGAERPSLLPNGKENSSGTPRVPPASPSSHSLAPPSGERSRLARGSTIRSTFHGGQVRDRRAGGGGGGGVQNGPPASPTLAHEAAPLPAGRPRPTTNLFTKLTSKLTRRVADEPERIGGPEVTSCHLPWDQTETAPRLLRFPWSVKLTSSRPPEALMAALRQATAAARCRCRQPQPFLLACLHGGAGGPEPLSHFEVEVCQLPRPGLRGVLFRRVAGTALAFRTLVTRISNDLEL

MAP3K2 (human) = MAP3K2 (human) (UniProt Q9Y2U5)
BRSK2 (human) = BRSK2 (human) (UniProt Q8IWQ3)
CLK3 (human) = CLK3 (human) (UniProt P49761)
EGFR (human) = EGFR (human) (UniProt P00533)
PTK2B (human) = PTK2B (human) (UniProt Q14289)
ROCK2 (human) = ROCK2 (human) (UniProt O75116)
MST1R (human) = MST1R (human) (UniProt Q04912)
MST1R (human), sequence (Q04912 whole entry, looked up): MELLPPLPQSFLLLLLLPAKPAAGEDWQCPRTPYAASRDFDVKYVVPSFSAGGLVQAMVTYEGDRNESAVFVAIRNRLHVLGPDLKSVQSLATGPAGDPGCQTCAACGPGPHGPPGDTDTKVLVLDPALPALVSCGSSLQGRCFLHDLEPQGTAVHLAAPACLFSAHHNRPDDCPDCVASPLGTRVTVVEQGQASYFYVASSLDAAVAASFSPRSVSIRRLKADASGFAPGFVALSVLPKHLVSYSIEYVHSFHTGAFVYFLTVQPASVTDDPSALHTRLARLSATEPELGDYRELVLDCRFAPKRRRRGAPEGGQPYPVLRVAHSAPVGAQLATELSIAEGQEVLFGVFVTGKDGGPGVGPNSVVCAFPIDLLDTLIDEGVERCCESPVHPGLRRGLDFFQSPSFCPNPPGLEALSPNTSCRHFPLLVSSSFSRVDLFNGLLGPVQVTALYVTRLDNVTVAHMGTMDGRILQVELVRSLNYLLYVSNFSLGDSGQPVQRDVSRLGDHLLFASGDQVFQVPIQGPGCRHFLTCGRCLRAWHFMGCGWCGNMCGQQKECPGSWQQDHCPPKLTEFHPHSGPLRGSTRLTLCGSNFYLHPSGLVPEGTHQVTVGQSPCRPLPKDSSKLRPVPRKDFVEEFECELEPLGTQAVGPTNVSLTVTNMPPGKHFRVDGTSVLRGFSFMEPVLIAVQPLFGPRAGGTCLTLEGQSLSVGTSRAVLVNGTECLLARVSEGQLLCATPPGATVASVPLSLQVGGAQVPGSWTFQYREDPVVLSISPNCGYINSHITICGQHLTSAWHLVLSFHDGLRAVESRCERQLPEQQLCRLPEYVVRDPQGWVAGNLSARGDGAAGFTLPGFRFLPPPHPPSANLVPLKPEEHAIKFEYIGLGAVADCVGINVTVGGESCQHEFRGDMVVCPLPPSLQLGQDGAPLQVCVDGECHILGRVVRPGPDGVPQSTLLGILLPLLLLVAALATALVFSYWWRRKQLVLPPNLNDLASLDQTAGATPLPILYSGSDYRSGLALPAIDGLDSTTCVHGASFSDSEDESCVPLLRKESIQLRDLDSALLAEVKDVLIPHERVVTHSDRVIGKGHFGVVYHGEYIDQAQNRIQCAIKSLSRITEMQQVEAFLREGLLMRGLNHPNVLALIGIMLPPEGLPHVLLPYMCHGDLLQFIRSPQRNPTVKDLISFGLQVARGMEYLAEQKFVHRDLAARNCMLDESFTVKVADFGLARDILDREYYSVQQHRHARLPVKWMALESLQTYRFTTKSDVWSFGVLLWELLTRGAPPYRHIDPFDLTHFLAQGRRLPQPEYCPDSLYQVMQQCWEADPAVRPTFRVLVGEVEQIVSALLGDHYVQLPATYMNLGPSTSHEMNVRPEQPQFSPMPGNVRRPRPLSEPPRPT

TSSK1B (human) = TSSK1B (human) (UniProt Q9BXA7)
CSF1R (human) = CSF1R (human) (UniProt P07333)
MAPK1 (human) = MAPK1 (human) (UniProt P28482)
MAP4K2 (human) = MAP4K2 (human) (UniProt Q12851)
CDK9 CCNK (human) = CDK9 CCNK (human) (UniProt O75909+P50750)
RAF1 (human) = RAF1 (human) (UniProt P04049)
CHEK2 (human) = CHEK2 (human) (UniProt O96017)
STK4 (human) = STK4 (human) (UniProt Q13043)
CSNK2A2 (human) = CSNK2A2 (human) (UniProt P19784)
ABL1 (human) = ABL1 (human) (UniProt P00519)
MARK3 (human) = MARK3 (human) (UniProt P27448)
CDK2 CCNA2 (human) = CDK2 CCNA2 (human) (UniProt P24941+P20248)
CDK2 CCNA2 (human), sequence (P20248 whole entry, looked up, other chains not shown): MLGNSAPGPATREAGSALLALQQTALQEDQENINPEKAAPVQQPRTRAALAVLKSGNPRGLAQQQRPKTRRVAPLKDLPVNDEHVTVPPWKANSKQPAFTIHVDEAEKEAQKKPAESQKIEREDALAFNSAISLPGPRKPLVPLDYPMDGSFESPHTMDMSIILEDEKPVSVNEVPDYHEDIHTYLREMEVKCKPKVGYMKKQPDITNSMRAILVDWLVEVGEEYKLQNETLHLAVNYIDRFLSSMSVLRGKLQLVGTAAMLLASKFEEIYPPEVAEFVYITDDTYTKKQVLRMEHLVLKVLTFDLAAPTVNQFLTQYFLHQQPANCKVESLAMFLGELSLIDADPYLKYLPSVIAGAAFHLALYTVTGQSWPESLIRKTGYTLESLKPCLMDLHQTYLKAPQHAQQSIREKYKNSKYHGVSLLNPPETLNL

ACVRL1 (human) = ACVRL1 (human) (UniProt P37023)
PRKD3 (human) = PRKD3 (human) (UniProt O94806)
EPHB3 (human) = EPHB3 (human) (UniProt P54753)
CSNK1E (human) = CSNK1E (human) (UniProt P49674)
CAMKK1 (human) = CAMKK1 (human) (UniProt Q8N5S9)

GSG2 (human), sequence (Q8TF76 whole entry, looked up): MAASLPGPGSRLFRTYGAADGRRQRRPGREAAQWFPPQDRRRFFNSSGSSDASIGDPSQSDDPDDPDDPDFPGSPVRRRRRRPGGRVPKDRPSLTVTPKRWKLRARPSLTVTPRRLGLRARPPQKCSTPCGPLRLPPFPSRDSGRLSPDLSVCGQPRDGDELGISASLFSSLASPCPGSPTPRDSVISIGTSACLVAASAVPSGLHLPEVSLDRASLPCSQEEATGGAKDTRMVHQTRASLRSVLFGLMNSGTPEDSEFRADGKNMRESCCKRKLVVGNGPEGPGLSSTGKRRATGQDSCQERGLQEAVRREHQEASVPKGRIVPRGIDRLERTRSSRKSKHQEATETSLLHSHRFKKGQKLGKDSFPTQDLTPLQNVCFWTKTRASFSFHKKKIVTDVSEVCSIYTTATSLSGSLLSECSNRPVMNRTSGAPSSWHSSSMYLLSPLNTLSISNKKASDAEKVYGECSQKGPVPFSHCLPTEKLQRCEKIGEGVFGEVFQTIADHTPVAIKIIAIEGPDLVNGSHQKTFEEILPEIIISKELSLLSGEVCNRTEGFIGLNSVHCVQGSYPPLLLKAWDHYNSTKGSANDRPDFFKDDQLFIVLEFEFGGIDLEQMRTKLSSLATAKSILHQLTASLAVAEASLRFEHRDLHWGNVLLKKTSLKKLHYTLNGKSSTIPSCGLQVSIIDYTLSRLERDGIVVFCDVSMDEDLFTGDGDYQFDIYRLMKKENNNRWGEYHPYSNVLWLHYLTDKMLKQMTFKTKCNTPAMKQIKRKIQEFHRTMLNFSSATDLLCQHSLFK

Structure (SMILES): O=C(CCCc1ccc(-c2ccccc2F)cc1)Nc1ccc(O)cc1
- residual activity (CSK (human)): 88%
- residual activity (ITK (human)): 85%
- residual activity (GSG2 (human)): 94.7%
- residual activity (ROS1 (human)): 98.4%
- residual activity (TGFBR1 (human)): 102%
- residual activity (DCLK2 (human)): 96.1%
- residual activity (ERBB4 (human)): 107%
- residual activity (TYRO3 (human)): 98.2%
- residual activity (TTK (human)): 89.5%
- residual activity (PIM3 (human)): 104%
- residual activity (CDK4 CCND3 (human)): 110%
- residual activity (ZAP70 (human)): 99.7%
- residual activity (MAP3K7 TAB1 (human)): 105%
- residual activity (STK39 (human)): 95.4%
- residual activity (CSNK1D (human)): 102%
- residual activity (BRSK1 (human)): 103%
- residual activity (KIT (human)): 96.3%
- residual activity (MARK4 (human)): 124%
- residual activity (MAP3K2 (human)): 89.1%
- residual activity (BRSK2 (human)): 99.2%
- residual activity (CLK3 (human)): 124%
- residual activity (EGFR (human)): 87.9%
- residual activity (PTK2B (human)): 98.8%
- residual activity (ROCK2 (human)): 90.5%
- residual activity (MST1R (human)): 106%
- residual activity (TSSK1B (human)): 107%
- residual activity (CSF1R (human)): 104%
- residual activity (MAPK1 (human)): 69.9%
- residual activity (MAP4K2 (human)): 104%
- residual activity (CDK9 CCNK (human)): 96.7%
- residual activity (RAF1 (human)): 102%
- residual activity (CHEK2 (human)): 101%
- residual activity (STK4 (human)): 95%
- residual activity (CSNK2A2 (human)): 78.7%
- residual activity (ABL1 (human)): 101%
- residual activity (MARK3 (human)): 101%
- residual activity (CDK2 CCNA2 (human)): 92.7%
- residual activity (ACVRL1 (human)): 101%
- residual activity (PRKD3 (human)): 96.9%
- residual activity (EPHB3 (human)): 96.5%
- residual activity (CSNK1E (human)): 99.4%

Structure (SMILES): CC(C)[C@H](CO)Nc1nc(Nc2cc(N)cc(Cl)c2)c2ncn(C(C)C)c2n1
- residual activity (CSK (human)): 79.3%
- residual activity (ITK (human)): 80.2%
- residual activity (CAMKK1 (human)): 86.8%
- residual activity (GSG2 (human)): 99.9%
- residual activity (ROS1 (human)): 96.5%
- residual activity (TGFBR1 (human)): 103%
- residual activity (DCLK2 (human)): 105%
- residual activity (ERBB4 (human)): 131%
- residual activity (TYRO3 (human)): 103%
- residual activity (TTK (human)): 84.5%
- residual activity (PIM3 (human)): 93%
- residual activity (ZAP70 (human)): 102%
- residual activity (MAP3K7 TAB1 (human)): 51.3%
- residual activity (STK39 (human)): 83.7%
- residual activity (CSNK1D (human)): 65.7%
- residual activity (BRSK1 (human)): 93.1%
- residual activity (KIT (human)): 86.2%
- residual activity (MARK4 (human)): 71.2%
- residual activity (MAP3K2 (human)): 83.1%
- residual activity (BRSK2 (human)): 88.2%
- residual activity (CLK3 (human)): 85.5%
- residual activity (EGFR (human)): 93.9%
- residual activity (PTK2B (human)): 63.6%
- residual activity (ROCK2 (human)): 101%
- residual activity (MST1R (human)): 122%
- residual activity (TSSK1B (human)): 91.3%
- residual activity (CSF1R (human)): 71.1%
- residual activity (MAPK1 (human)): 95.4%
- residual activity (MAP4K2 (human)): 90.7%
- residual activity (RAF1 (human)): 113%
- residual activity (CHEK2 (human)): 96.3%
- residual activity (STK4 (human)): 63.6%
- residual activity (CSNK2A2 (human)): 106%
- residual activity (ABL1 (human)): 45.5%
- residual activity (MARK3 (human)): 85.2%
- residual activity (ACVRL1 (human)): 109%
- residual activity (PRKD3 (human)): 89.2%
- residual activity (EPHB3 (human)): 95.3%
- residual activity (CSNK1E (human)): 82.7%

- residual activity (CSK (human)): 86.3%
- residual activity (ITK (human)): 34.8%
- residual activity (CAMKK1 (human)): 26.2%
- residual activity (GSG2 (human)): 32.8%
- residual activity (ROS1 (human)): 27%
- residual activity (TGFBR1 (human)): 102%
- residual activity (DCLK2 (human)): 86.4%
- residual activity (ERBB4 (human)): 97.5%
- residual activity (TYRO3 (human)): 71.5%
- residual activity (TTK (human)): 46.1%
- residual activity (PIM3 (human)): 58.5%
- residual activity (CDK4 CCND3 (human)): 66.1%
- residual activity (ZAP70 (human)): 97.8%
- residual activity (MAP3K7 TAB1 (human)): 50.5%
- residual activity (STK39 (human)): 79.3%
- residual activity (CSNK1D (human)): 52.9%
- residual activity (BRSK1 (human)): 39.5%
- residual activity (KIT (human)): 44.8%
- residual activity (MARK4 (human)): 43.5%
- residual activity (MAP3K2 (human)): 60.6%
- residual activity (BRSK2 (human)): 33.3%
- residual activity (CLK3 (human)): 16.1%
- residual activity (EGFR (human)): 88.1%
- residual activity (PTK2B (human)): 30.5%
- residual activity (ROCK2 (human)): 91%
- residual activity (MST1R (human)): 101%
- residual activity (TSSK1B (human)): 76.6%
- residual activity (CSF1R (human)): 21.1%
- residual activity (MAPK1 (human)): 89.8%
- residual activity (MAP4K2 (human)): 51.7%
- residual activity (CDK9 CCNK (human)): 33.2%
- residual activity (RAF1 (human)): 100%
- residual activity (CHEK2 (human)): 27%
- residual activity (STK4 (human)): 8.29%
- residual activity (CSNK2A2 (human)): 28.3%
- residual activity (ABL1 (human)): 71.9%
- residual activity (MARK3 (human)): 75.2%
- residual activity (CDK2 CCNA2 (human)): 15.5%
- residual activity (ACVRL1 (human)): 103%
- residual activity (PRKD3 (human)): 68.1%
- residual activity (CSNK1E (human)): 43.2%
Structure (SMILES): O=C1Nc2ccccc2/C1=C1/Nc2ccccc2/C1=N\OCCC(O)CO (configuration not stated)

- residual activity (CSK (human)): 93%
- residual activity (ITK (human)): 53%
- residual activity (CAMKK1 (human)): 53.6%
- residual activity (GSG2 (human)): 65.6%
- residual activity (ROS1 (human)): 65.6%
- residual activity (TGFBR1 (human)): 98.9%
- residual activity (DCLK2 (human)): 88.5%
- residual activity (ERBB4 (human)): 102%
- residual activity (TYRO3 (human)): 79.6%
- residual activity (TTK (human)): 68%
- residual activity (PIM3 (human)): 73.6%
- residual activity (CDK4 CCND3 (human)): 98.9%
- residual activity (ZAP70 (human)): 95.6%
- residual activity (STK39 (human)): 90.4%
- residual activity (CSNK1D (human)): 39.3%
- residual activity (BRSK1 (human)): 23.4%
- residual activity (KIT (human)): 73.2%
- residual activity (MARK4 (human)): 56.2%
- residual activity (MAP3K2 (human)): 94.6%
- residual activity (BRSK2 (human)): 28%
- residual activity (CLK3 (human)): 48.2%
- residual activity (EGFR (human)): 97.1%
- residual activity (PTK2B (human)): 65.8%
- residual activity (ROCK2 (human)): 98.5%
- residual activity (MST1R (human)): 103%
- residual activity (TSSK1B (human)): 86%
- residual activity (CSF1R (human)): 83.2%
- residual activity (MAPK1 (human)): 96.6%
- residual activity (MAP4K2 (human)): 57.3%
- residual activity (CDK9 CCNK (human)): 59.7%
- residual activity (RAF1 (human)): 99.3%
- residual activity (CHEK2 (human)): 32.3%
- residual activity (STK4 (human)): 18.8%
- residual activity (CSNK2A2 (human)): 75%
- residual activity (ABL1 (human)): 82.5%
- residual activity (MARK3 (human)): 85.8%
- residual activity (CDK2 CCNA2 (human)): 29.6%
- residual activity (ACVRL1 (human)): 108%
- residual activity (PRKD3 (human)): 88.4%
- residual activity (EPHB3 (human)): 92.3%
- residual activity (CSNK1E (human)): 46.1%
Structure (SMILES): O=C1Nc2ccccc2/C1=C1\Nc2ccccc2\C1=N/O
